Each block holds one compound with its values, some of them ahead of it.
What was measured:
[1] = biological target: Tyrosine-protein kinase Lyn (Homo sapiens, UniProt P07948); assay: Selectivity interaction (Kinase panel (Z-LYTE Assay)) EUB0001632a LYN; details: at 10 µM
[2] = biological target: Ribosomal protein S6 kinase alpha-6 (Homo sapiens, UniProt Q9UK32); assay: Selectivity interaction (Kinase panel (Invitrogen)) EUB0000639a RPS6KA6; details: at 200 nM
[3] = biological target: Mitogen-activated protein kinase 8 (Homo sapiens, UniProt P45983); assay: Selectivity interaction (KinomeScan (DiscoverX)) EUB0000695a MAPK8; details: at 100 nM
Mitogen-activated protein kinase 8, sequence (P45983 whole entry, the tested form may be a part): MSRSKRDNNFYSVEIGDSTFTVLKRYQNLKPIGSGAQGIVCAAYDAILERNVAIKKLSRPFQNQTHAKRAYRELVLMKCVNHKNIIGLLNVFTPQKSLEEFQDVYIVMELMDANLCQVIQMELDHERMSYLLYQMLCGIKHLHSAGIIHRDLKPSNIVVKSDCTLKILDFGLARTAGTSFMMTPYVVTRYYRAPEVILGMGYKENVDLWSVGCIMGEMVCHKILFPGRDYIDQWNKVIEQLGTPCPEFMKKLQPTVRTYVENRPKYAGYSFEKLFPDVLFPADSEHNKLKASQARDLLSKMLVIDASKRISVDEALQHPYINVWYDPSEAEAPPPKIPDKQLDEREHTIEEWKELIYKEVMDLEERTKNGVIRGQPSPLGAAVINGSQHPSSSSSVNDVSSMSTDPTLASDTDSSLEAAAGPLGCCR

[4] = biological target: T1, Phosphatidylinositol 3-kinase C2 domain-containing subunit gamma (Homo sapiens) (UniProt O75747); assay: Selectivity interaction (Ambit KINOMEscan and KiNATiv profiling in Jurkat cells) EUB0000090b PIK3C2G; type: cell-based; details: at 1 µM
T1 sequence (whole entry): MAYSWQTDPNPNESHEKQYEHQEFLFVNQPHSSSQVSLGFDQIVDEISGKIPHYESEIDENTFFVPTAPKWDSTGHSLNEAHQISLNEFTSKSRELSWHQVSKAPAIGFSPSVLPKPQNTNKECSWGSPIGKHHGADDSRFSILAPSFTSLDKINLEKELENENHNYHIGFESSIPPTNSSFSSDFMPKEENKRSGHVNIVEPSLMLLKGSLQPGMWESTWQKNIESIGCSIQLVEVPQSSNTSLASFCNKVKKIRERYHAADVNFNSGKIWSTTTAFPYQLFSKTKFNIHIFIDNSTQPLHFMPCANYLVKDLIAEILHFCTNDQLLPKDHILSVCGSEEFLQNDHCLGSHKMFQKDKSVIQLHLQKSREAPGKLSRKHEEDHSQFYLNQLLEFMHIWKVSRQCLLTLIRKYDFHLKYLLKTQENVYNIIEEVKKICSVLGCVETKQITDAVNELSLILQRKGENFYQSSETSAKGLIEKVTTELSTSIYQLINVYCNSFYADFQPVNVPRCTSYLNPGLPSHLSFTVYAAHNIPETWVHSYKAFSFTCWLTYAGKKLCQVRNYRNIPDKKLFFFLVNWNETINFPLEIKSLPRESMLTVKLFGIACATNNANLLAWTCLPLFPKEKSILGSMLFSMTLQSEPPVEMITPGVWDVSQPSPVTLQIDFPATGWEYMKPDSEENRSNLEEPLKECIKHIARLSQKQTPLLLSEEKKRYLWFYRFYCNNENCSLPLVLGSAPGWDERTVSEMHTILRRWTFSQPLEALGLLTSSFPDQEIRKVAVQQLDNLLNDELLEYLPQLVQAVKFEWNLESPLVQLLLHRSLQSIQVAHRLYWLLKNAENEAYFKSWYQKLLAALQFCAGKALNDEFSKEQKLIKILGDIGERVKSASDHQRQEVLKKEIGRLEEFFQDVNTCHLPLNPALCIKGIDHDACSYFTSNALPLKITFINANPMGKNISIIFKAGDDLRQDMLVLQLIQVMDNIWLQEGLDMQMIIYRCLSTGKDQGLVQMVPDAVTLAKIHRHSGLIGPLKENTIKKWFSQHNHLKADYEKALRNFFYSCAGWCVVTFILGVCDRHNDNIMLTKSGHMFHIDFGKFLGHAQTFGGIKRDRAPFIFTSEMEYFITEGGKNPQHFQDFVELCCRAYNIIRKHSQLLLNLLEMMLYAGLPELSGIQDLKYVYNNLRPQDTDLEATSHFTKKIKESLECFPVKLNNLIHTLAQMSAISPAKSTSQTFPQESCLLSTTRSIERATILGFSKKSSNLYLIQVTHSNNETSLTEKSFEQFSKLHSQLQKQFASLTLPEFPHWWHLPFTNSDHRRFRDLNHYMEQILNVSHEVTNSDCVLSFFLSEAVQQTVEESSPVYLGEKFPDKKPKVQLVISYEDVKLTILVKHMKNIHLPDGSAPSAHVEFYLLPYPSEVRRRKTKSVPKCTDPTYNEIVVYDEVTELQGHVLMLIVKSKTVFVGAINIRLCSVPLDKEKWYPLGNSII

[5] = biological target: Cyclin-dependent kinase 13 (Homo sapiens, UniProt Q14004); assay: Selectivity interaction (KinomeScan (DiscoverX)) EUB0000655a CDK13; details: at 10 µM
Cyclin-dependent kinase 13, sequence (Q14004 whole entry, looked up): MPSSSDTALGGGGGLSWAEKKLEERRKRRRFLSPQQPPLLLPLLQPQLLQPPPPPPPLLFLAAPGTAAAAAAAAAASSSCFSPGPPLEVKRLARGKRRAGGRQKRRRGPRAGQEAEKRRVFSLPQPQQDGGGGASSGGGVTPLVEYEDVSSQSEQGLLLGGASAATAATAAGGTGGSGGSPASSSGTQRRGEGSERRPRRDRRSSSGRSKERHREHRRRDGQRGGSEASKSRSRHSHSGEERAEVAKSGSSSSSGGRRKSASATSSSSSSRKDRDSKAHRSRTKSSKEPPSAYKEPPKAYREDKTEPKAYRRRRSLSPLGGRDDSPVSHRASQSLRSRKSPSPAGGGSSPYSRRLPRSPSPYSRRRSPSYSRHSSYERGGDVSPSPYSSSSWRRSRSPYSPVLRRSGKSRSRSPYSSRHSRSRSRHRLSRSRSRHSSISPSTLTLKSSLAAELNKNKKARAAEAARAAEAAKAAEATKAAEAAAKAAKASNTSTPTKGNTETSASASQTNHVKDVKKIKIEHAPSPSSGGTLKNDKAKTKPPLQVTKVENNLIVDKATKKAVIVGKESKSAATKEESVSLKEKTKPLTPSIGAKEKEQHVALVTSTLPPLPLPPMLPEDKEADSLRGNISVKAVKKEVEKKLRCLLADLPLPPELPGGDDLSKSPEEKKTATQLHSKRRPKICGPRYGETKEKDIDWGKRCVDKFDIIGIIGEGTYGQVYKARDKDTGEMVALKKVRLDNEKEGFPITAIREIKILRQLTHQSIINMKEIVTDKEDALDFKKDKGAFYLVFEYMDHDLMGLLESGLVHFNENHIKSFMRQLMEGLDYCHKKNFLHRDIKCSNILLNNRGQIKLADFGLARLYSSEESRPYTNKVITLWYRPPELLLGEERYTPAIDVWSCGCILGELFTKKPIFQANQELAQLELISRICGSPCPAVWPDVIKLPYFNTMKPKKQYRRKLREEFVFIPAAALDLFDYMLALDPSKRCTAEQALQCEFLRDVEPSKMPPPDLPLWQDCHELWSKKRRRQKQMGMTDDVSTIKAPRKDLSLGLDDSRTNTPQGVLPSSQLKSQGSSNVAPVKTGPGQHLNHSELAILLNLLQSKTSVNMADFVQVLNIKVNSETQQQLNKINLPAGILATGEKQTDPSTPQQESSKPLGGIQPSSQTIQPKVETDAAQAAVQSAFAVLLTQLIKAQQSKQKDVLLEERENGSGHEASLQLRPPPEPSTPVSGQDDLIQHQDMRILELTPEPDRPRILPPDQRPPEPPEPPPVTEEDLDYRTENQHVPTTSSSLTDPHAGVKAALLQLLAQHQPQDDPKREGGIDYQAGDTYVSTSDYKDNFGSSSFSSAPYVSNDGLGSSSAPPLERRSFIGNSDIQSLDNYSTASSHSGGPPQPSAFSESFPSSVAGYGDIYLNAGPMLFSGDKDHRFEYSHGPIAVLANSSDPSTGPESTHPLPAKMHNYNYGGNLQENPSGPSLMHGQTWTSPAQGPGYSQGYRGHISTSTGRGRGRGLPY

[6] = biological target: T2, Ephrin type-B receptor 3 (Homo sapiens) (UniProt P54753); assay: Selectivity interaction (KinomeScan (DiscoverX)) EUB0000045b EPHB3
T2 sequence (whole entry): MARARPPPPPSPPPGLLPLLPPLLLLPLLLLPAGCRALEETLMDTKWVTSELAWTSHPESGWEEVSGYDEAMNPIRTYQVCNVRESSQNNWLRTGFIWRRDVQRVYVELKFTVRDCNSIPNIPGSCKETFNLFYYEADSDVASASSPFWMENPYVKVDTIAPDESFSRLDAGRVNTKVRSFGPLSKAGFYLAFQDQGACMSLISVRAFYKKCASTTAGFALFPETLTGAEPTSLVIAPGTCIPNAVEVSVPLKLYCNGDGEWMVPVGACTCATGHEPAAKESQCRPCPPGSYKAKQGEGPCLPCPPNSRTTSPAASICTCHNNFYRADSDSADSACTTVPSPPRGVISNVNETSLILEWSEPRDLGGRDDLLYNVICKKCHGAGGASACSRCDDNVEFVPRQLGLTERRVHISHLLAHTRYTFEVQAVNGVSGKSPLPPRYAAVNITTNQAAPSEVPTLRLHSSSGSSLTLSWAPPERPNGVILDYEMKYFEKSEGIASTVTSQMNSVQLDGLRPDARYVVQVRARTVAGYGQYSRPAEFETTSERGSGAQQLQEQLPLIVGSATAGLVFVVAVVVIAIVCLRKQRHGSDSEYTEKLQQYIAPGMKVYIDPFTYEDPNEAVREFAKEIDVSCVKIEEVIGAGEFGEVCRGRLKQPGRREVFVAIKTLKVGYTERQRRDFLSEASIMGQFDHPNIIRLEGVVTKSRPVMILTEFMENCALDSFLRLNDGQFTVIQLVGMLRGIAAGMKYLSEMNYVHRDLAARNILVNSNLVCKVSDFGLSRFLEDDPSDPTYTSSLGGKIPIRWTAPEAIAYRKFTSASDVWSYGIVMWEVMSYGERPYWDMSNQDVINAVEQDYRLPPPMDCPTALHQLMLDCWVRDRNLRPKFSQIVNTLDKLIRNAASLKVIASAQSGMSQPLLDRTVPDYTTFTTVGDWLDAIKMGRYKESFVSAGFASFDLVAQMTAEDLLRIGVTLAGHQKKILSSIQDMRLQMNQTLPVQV

[7] = biological target: Calcium/calmodulin-dependent protein kinase type 1 (Homo sapiens) (UniProt Q14012); details: at 10 µM
Calcium/calmodulin-dependent protein kinase type 1 (Homo sapiens), sequence (Q14012 whole entry, looked up): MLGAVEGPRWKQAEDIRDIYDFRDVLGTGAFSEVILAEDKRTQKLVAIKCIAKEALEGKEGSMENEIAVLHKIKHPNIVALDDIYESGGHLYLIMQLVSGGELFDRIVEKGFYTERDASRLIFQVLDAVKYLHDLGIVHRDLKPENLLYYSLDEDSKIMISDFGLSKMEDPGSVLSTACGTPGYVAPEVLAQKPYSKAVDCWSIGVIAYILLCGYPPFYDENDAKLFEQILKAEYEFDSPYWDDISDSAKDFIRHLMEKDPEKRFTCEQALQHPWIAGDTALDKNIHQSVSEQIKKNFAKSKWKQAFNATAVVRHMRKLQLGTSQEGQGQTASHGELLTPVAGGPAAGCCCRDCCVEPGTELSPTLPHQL

[8] = biological target: Ribosomal protein S6 kinase alpha-4 (Homo sapiens) (UniProt O75676); assay: Selectivity interaction (KinomeScan (DiscoverX)) EUB0000618a RPS6KA4; details: at 10 µM
Ribosomal protein S6 kinase alpha-4 (Homo sapiens), sequence (O75676 whole entry, looked up): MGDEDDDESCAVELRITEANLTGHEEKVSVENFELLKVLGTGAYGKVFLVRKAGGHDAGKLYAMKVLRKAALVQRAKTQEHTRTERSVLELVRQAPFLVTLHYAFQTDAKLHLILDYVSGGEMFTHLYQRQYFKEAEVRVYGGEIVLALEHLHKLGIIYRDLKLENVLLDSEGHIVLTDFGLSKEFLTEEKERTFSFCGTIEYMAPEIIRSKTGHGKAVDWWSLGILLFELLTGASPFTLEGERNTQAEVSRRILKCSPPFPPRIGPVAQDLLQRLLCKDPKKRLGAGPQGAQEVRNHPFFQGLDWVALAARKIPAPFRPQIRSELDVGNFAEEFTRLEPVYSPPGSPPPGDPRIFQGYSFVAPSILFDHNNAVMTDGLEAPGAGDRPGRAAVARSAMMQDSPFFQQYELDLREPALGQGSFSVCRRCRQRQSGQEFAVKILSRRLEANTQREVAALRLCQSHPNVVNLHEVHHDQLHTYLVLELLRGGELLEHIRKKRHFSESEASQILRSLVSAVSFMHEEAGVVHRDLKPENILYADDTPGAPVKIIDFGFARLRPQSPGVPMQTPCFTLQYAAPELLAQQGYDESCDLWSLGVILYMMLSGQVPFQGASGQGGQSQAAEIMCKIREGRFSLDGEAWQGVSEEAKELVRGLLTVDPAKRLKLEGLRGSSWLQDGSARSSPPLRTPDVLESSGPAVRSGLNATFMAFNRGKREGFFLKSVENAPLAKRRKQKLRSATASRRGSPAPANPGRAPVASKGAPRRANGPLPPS

Ribosomal protein S6 kinase alpha-6, sequence (Q9UK32 whole entry): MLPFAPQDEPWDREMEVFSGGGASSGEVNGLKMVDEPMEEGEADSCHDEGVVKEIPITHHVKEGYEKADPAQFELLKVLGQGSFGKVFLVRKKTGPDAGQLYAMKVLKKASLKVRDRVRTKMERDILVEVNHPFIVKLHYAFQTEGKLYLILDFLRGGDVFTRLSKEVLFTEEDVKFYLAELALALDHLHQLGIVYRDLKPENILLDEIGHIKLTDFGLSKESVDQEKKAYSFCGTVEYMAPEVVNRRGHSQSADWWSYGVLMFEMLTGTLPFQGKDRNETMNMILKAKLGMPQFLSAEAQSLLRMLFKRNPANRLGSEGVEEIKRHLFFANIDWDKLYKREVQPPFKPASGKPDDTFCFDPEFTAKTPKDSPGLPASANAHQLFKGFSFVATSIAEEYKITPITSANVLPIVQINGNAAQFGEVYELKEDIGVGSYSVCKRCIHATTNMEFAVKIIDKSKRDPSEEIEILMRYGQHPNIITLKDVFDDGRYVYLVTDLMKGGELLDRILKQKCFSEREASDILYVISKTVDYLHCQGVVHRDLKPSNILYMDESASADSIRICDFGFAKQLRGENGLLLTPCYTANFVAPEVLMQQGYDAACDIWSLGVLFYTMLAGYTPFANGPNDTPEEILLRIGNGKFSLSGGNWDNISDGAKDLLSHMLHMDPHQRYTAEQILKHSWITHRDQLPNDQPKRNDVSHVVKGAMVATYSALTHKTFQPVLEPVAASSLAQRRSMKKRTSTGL
Tyrosine-protein kinase Lyn, sequence (P07948 2-512 limits assumed): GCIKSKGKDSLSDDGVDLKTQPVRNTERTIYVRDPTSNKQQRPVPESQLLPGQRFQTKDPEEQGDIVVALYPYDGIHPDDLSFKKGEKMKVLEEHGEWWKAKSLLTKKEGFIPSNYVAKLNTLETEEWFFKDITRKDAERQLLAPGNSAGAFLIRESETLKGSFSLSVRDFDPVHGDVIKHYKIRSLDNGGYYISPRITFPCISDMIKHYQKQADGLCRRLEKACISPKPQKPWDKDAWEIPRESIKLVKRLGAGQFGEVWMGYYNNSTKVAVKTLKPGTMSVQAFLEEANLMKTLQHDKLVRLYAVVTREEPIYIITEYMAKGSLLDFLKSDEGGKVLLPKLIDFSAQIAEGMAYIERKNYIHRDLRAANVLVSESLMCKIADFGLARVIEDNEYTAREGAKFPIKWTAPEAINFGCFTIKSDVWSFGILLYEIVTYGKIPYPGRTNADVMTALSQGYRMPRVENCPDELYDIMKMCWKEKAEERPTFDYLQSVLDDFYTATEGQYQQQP

% of control [1]: 8.19%
SMILES: Cn1cc(-n2cnc3c(NCc4nc5cc(Cl)c(Cl)cc5[nH]4)nc(N4CCOCC4)nc32)cn1

% of inhibition [2]: -1.29%
SMILES: CC[C@@H]1[C@H](F)C(=O)N[C@@H]1COc1nccc2cc(C(N)=O)c(OC)cc12 [ZIMLOVISERTIB]

SMILES: Cc1cc(F)c(C(=O)Nc2cccc(-c3nncn3C(C)C)n2)cc1-n1cnc(C2CC2)c1
% of control [3]: 72%

SMILES: CN(C)C/C=C/C(=O)Nc1ccc(C(=O)N2CCCC(Nc3ncc(Cl)c(-c4c[nH]c5ccccc45)n3)C2)cc1 (centres undefined)
% of control [4]: 100%

SMILES: CN(C)CCOc1ccc(-c2nc(-c3ccncc3)c(-c3ccc4c(c3)CC/C4=N\O)[nH]2)cc1
% of control [5]: 100%

SMILES: C=CC(=O)Nc1cc(-n2c(=O)ccc3cnc4ccc(-c5ccc(NS(C)(=O)=O)cc5)cc4c32)ccc1C
% of control ([6]; at 1 µM): 83%
% of control ([6]; at 10 µM): 88%

SMILES: Cc1cc([C@@H](C)Nc2ccccc2C(=O)O)c2nc(N3CCOCC3)cc(=O)n2c1 [AZD-6482]
% of control [7]: 100%

SMILES: O[C@H]1CC[C@H](Nc2ncc3nc(Nc4c(F)cc(F)cc4F)n([C@H]4CCOC4)c3n2)CC1
% of control [8]: 100%
